Results published in patent US5861405A, “S-substituted 1,3,7-trialkyl-xanthine derivatives” (priority 1994, dated 1999).
Like-named read-outs stand apart in the source and are kept apart here.

What was measured:
[1] = target: rat striatal A2a receptors (Rattus norvegicus, UniProt P30543); test: Radioligand binding, [3H]CGS 21680, rat striatal A2a receptors; design: Rat cerebral cortical membranes and striatal membranes were prepared; from tissue; host or cells: rat striatal membranes; conditions: for A2-selectivity: rat brain binding, this study; for potency or selectivity in binding, in words: rat A1 and A2 binding
Method: (§1) The 1,3,7-trialkyl-8-substituted xanthine compounds of the present invention were tested in a radioligand binding assay for affinity at adenosine receptors in rat brain membranes.
The stock solutions were diluted with DMSO to a concentration of ≥0.1 mM prior to adding to the aqueous medium. The final concentration of DMSO in the assay medium was generally 2%.
Test drugs were dissolved in DMSO and added in 10 μl aliquots, resulting in a final DMSO concentration of 2%. Non-specific binding was defined using 20 μM 2-chloroadenosine. Filtration was carried out using a Brandel Cell Harvester, as above, using Tris HCl/MgCl2 as the washing buffer.
(§2) At least six different concentrations spanning three orders of magnitude, adjusted appropriately for the IC50 of each compound, were used.

[2] = target: T1, rat A1 cortical receptors (Rattus norvegicus, UniProt P25099); test: Radioligand binding, [3H]N6-phenylisopropyladenosine ([3H]PIA), rat cortical A1 receptors; conditions: for Ki: vs [3H]PIA (1 nM), read-out: Ki (A1); for inhibition at 10 µM: 1.5 h, at 10^-5, vs [3H]PIA, read-out: Percent displacement of specific binding (A1)
T1 construct: Rat cerebral cortical membranes and striatal membranes were prepared; from tissue; host or cells: rat cerebral cortex membranes
T1 sequence (P25099 1-326): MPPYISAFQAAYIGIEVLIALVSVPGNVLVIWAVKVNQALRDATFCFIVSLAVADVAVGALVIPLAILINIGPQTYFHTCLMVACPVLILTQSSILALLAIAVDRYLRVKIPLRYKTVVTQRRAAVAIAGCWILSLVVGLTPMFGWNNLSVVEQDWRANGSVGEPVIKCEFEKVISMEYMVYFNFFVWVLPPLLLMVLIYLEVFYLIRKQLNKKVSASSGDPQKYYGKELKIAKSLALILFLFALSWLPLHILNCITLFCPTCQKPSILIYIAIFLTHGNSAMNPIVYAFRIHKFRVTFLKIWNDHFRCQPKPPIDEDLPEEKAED
Method: as §1
The final concentration of DMSO in the assay medium was generally 2%.
Membranes (~100 μg protein per tube) were incubated for 1.5 h at 37° C. in a total volume of 0.5 ml of 50 mM Tris hydrochloride, at pH 7.4. Test drugs were dissolved in DMSO and added in 10 μl aliquots, resulting in a final DMSO concentration of 2%. Bound and free radioligand were separated by addition of 3 ml of a buffer containing 50 mM Tris hydrochloride, pH 7.4, at 5° C., followed by vacuum filtration using a Brandel Cell Harvester (Brandel, Gaithersburg, Md.) and a Whatman GF/B glass fiber filter with additional washes totaling 9 ml of buffer. Non-specific binding was determined with 10 μM 2-chloroadenosine.
as §2

[3] = Table I, vs [3H]CGS21680 (5 nM), rat striatal A2 receptors, read-out: Ki (A2a)
[4] = Table III, vs [3H]CGS21680 (5 nM), read-out: Ki (A2)
[5] = vs [3H]CGS 21680, read-out: Ki value / affinity at A2 receptors

Chain of rat striatal A2a receptors (P30543 whole entry): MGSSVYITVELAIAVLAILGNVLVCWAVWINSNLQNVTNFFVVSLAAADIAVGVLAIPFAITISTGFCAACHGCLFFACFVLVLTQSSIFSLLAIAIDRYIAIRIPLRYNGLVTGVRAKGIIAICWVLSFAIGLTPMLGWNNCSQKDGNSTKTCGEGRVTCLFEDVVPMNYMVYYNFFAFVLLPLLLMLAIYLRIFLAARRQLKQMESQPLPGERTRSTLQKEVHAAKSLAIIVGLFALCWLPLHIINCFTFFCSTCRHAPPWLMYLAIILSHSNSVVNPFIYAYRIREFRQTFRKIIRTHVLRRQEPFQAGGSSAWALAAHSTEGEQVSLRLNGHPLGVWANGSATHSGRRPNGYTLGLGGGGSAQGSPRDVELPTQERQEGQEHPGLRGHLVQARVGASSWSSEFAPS

| Structure (SMILES) | Ki [1, 3] | Ki ([2]; Table I, rat A1 receptors) | A1/A2a ratio ([1]; Table I, ratio of Ki values) | also measured |
| --- | --- | --- | --- | --- |
| COc1ccc(/C=C/c2nc3c([nH]2)c(=O)n(C)c(=O)n3C)cc1OC [Compound 32a, 1,3-Dimethyl-8-(3,4-dimethoxystyryl)xanthine] | 1100 nM | 5340 nM | – | A1/A2a ratio [1]: 48 |
| Cn1c(=O)c2c(nc(/C=C/c3cccc(F)c3)n2C)n(C)c1=O [Compound 27b] | 83 ± 18 nM | 15800 nM | 190 | A2-selectivity [1]: ≥ 200 fold |
| COc1cccc(/C=C/c2nc3c([nH]2)c(=O)n(C)c(=O)n3C)c1OC [Compound 31a, 1,3-Dimethyl-8-(2,3-dimethoxystyryl)xanthine] | 600 ± 204 nM | 1600 nM | 2.7 | – |
| C/C(=C\c1nc2c(c(=O)n(C)c(=O)n2C)n1C)c1ccccc1 [phenyl (Rβ = Me)] | – | – | – | A1/A2 ratio ([1]; Table III): 6; Ki [1, 4]: 1420 nM; Ki ([2]; Table III): 8680 nM |
| CCn1c(=O)c2c(nc(/C=C/c3cc(OC)c(OC)c(OC)c3)n2C)n(CC)c1=O [Compound 45b] | – | 2790 nM | – | – |
| CCCn1c(=O)c2[nH]c(/C=C/c3cc(OC)cc(OC)c3)nc2n(CCC)c1=O [Compound 53a] | 210 ± 140 nM | 632 ± 152 nM | 3.0 | – |
| CCCn1c(=O)c2c(nc(/C=C/c3cc(F)cc(F)c3)n2C)n(CCC)c1=O [Compound 54b] | 53 ± 15 nM | 382 ± 40 nM | 7.2 | Ki [1, 5]: ≤ 50 nM |
| COc1cccc2cc(-c3nc4c(c(=O)n(C)c(=O)n4C)n3C)oc12 [Compound 58b] | – | – | – | Ki ([1]; Table IV, vs [3H]CGS21680 (5 nM), read-out: Ki (A2)): 4740 nM |
| Cn1c(=O)c2c(nc(/C=C/c3cccc([N+]#N)c3)n2C)n(C)c1=O [Compound 28d] | 64.8 ± 19.6 nM | 2990 nM | 46 | – |
| Cn1c(=O)c2[nH]c(/C=C/c3cccc([N+](=O)[O-])c3)nc2n(C)c1=O [Compound 21a, 1,3-Dimethyl-8-(3-nitrostyryl)xanthine] | 438 ± 106 nM | 1060 nM | 2.4 | – |
| COc1cc(/C=C/c2nc3c(c(=O)n(C)c(=O)n3C)n2CCO)cc(OC)c1OC [Compound 44d] | – | – | – | inhibition at 10 µM ([1]; 1 h, at 10^-5, vs [3H]CGS21680, read-out: Percent displacement of specific binding (A2a)): 22%; inhibition at 10 µM [2]: 26 ± 9% |
| COc1cccc(/C=C/c2nc3c(c(=O)n(C)c(=O)n3C)n2C)c1 [Compound 19b] | 84.8 ± 24 nM | 5430 nM | 64 | Ki [1, 5]: 85 nM |
| CCC/C=C/c1nc2c(c(=O)n(C)c(=O)n2C)n1C [n-propyl(Rβ = H)] | – | – | – | A1/A2 ratio ([1]; Table III): 3.8; Ki [1, 4]: 1600 nM; Ki ([2]; Table III): 6000 nM |
| Cn1c(=O)c2c(nc(/C=C/C(=O)OC(C)(C)C)n2C)n(C)c1=O [C(O)OC(CH3)3 (Rβ = H), 8-(trans-2-tert-Butyloxycarbonylvinyl)-1,3,7-trimethylxanthine] | – | – | – | A1/A2 ratio ([1]; Table III): 31; Ki [1, 4]: 590 nM; Ki ([2]; Table III): 18000 nM |
| COc1cc(/C=C/c2nc3c(c(=O)n(C)c(=O)n3C)n2C)cc(OC)c1 [Compound 33b, 1,3,7-Trimethyl-8-(3,5-dimethoxystyryl)xanthine] | 75.3 ± 29.1 nM | – | > 200 | inhibition at 10 µM [2]: 12.5 ± 6.3% |
| Cn1c(=O)c2c(nc(/C=C/c3ccccc3)n2C)n(C)c1=O [Compound 15b] | – | 3890 nM | – | – |
| CCCn1c(=O)c2[nH]c(/C=C/c3cccc(F)c3)nc2n(CCC)c1=O [Compound 50a] | 153 ± 31 nM | 78 ± 17 nM | 0.51 | – |
| CN(C)c1ccc(/C=C/c2nc3c([nH]2)c(=O)n(C)c(=O)n3C)cc1 [Compound 30a, 1,3-Dimethyl-8-(4-dimethylaminostyryl)xanthine] | 12800 nM | 3030 nM | 0.24 | – |
| Cn1c(=O)c2c(nc(/C=C/C(=O)O)n2C)n(C)c1=O [C(O)OH(Rβ = H), 8-(trans-2-Carboxyvinyl)-1,3,7-trimethylxanthine] | – | – | – | A1/A2 ratio ([1]; Table III): > 3; Ki [1, 4]: 30000 nM; Ki ([2]; Table III): > 100000 nM |
| Cn1c(=O)c2c(nc(/C=C/C(=O)Nc3ccccc3)n2C)n(C)c1=O [C(O)NH-phenyl(Rβ = H)] | – | – | – | A1/A2 ratio ([1]; Table III): 19.8; Ki [1, 4]: 2530 nM; Ki ([2]; Table III): 50000 nM |
| CCCn1c(=O)c2c(nc(/C=C/c3cc(OC)c(OC)cc3OC)n2C)n(CCC)c1=O [Compound 56b] | 327 ± 52 nM | 689 ± 239 nM | – | A1/A2a ratio ([1]; rat, brain membranes): 2.1 |
| Cn1c(=O)c2[nH]c(/C=C/c3cc(F)cc(F)c3)nc2n(C)c1=O [Compound 34a] | 366 ± 77 nM | 2330 nM | 6.4 | – |

| Structure (SMILES) | Ki [1, 3] | Ki ([2]; Table I, rat A1 receptors) | A1/A2a ratio ([1]; Table I, ratio of Ki values) | also measured |
| --- | --- | --- | --- | --- |
| COc1cc(/C=C/c2nc3c(c(=O)n(C)c(=O)n3C)n2C)cc(OC)c1OCCCCN [Compound 38, 1,3,7-Trimethyl-8-[3,5-dimethoxy-4-[4-aminobutyloxy]styryl]xanthine] | 173 ± 43 nM | 6170 nM | 36 | – |
| Cn1c(=O)c2c(nc(/C=C/c3cccc([N+](=O)[O-])c3)n2C)n(C)c1=O [Compound 21b, 1,3,7-Trimethyl-8-(3-nitrostyryl)xanthine] | 195 ± 44 nM | 2140 nM | 11 | – |
| COc1cc(/C=C/c2nc3c(c(=O)n(C)c(=O)n3C)n2C)cc(OC)c1OC(C)=O [Compound 36] | 68 ± 22 nM | 6330 nM | 93 | A2-selectivity [1]: 93 fold |
| CCCn1c(=O)c2c(nc(/C=C/c3ccc(OC)c(OC)c3OC)n2C)n(CCC)c1=O [Compound 55b] | 68.5 ± 12.6 nM | 379 ± 128 nM | 5.5 | – |
| COc1cc(/C=C/c2nc3c(c(=O)n(C)c(=O)n3C)n2C)cc(OC)c1OC/C=C/CN [Compound 40] | 228 ± 20 nM | 6280 nM | 28 | – |
| CCCn1c(=O)c2[nH]c(/C=C/c3cccc(Cl)c3)nc2n(CCC)c1=O [Compound 51a] | 216 ± 66 nM | 167 ± 39 nM | 0.77 | – |
| Cn1c(=O)c2[nH]c(/C=C/c3ccccc3)nc2n(C)c1=O [Compound 15a] | 291 ± 40 nM | 654 ± 170 nM | 2.3 | potency or selectivity in binding, in words [1]: non-selective |
| Cn1c(=O)c2c(nc(/C=C/c3cc(F)cc(F)c3)n2C)n(C)c1=O [Compound 34b] | 65 ± 9 nM | 14800 nM | 230 | – |
| COc1cc(/C=C/c2nc3c(c(=O)n(C)c(=O)n3C)n2C)cc(OC)c1OCc1ccccc1 [Compound 37, 1,3,7-Trimethyl-8-(3,5-dimethoxy-4-benzyloxystyryl) xanthine] | 139 ± 7 nM | 4120 nM | 30 | – |
| COc1ccc(/C=C/c2nc3c(c(=O)n(C)c(=O)n3C)n2C)cc1 [Compound 29b, 1,3,7-Trimethyl-8-(4-methoxystyryl)xanthine] | 327 ± 75 nM | 14200 nM | 44 | – |
| COc1cc(/C=C/c2nc3c(c(=O)n(C)c(=O)n3C)n2C)cc(OC)c1O [Compound 35] | 450 ± 66 nM | 8700 nM | 19 | potency or selectivity in binding, in words [1]: moderately selective |
| CCCn1c(=O)c2c(nc(/C=C/c3cccc([N+](=O)[O-])c3)n2C)n(CCC)c1=O [Compound 48] | 56.2 ± 6.8 nM | 272 ± 68 nM | 4.8 | – |
| CCCn1c(=O)c2[nH]c(/C=C/c3cc(OC)c(OC)cc3OC)nc2n(CCC)c1=O [Compound 56a] | 323 ± 74 nM | 143 ± 19 nM | 0.44 | – |
| COc1ccccc1/C=C/c1nc2c(c(=O)n(C)c(=O)n2C)n1C [Compound 17b, 1,3,7-Trimethyl-8-(2-methoxystyryl)xanthine] | 267 ± 84 nM | 4760 nM | 18 | – |
| COc1cc(/C=C/c2nc3c(c(=O)n(C)c(=O)n3C)n2C)cc(OC)c1OC/C=C/CNC(=O)OC(C)(C)C [Compound 42] | 353 ± 62 nM | – | > 40 | inhibition at 10 µM [2]: 11 ± 5% |
| Cn1c(=O)c2c(nc(/C=C/c3cccc(C(F)(F)F)c3)n2C)n(C)c1=O [Compound 20b, 1,3,7-Trimethyl-8-(3-trifluoromethylstyryl)xanthine] | 134 ± 44 nM | 3330 nM | 25 | – |
| COc1cc(/C=C/c2nc3c([nH]2)c(=O)n(C)c(=O)n3C)cc(OC)c1 [Compound 33a, 1,3-Dimethyl-8-(3,5-dimethoxystyryl)xanthine] | 120 ± 36 nM | 3040 nM | 25 | – |
| C#CCn1c(/C=C/c2cc(OC)c(OC)c(OC)c2)nc2c1c(=O)n(C)c(=O)n2C [Compound 44e] | 525 ± 220 nM | 4040 nM | 7.7 | – |
| COc1cc(/C=C/c2nc3c(c(=O)n(C)c(=O)n3C)n2CCc2ccccc2)cc(OC)c1OC [Compound 44f] | – | – | – | inhibition at 10 µM [2]: 32 ± 9% |
| CCCn1c(=O)c2c(nc(/C=C/c3cccc(Cl)c3)n2C)n(CCC)c1=O [Compound 51b] | – | 874 ± 222 nM | – | – |
| Cn1c(=O)c2c(nc(/C=C/c3cccc(NC(=O)OC(C)(C)C)c3)n2C)n(C)c1=O [Compound 25, 1,3,7-Trimethyl-8-(3-tert-butyloxycarbonylaminostyryl)xanthine] | 784 ± 100 nM | – | – | – |
